# Tests used:
# [1] = tested on: CfEcR-DEF mutant I51N; experiment: GAL4-driven luciferase reporter assay in NIH3T3 cells; assay type: cell-based, Choristoneura fumiferana
# Procedure: (§1) This construct was prepared in the same way as in switch 1.1 above except wild-type CfEcR-DEF was replaced with mutant CfEcR-DEF comprising a ligand binding domain comprising a substitution mutation selected from Table 1 below.
# (§2) DNAs were transfected into mouse NIH3T3 cells (ATCC) as follows. Standard methods for culture and maintenance of the cells were followed. Cells were harvested and plated 96-well plates at 2,500 cells per well, in 50 μL of growth medium containing 10% fetal bovine serum (FBS). Twenty-four hours later, the cells were treated with 35 μL of serum-free growth medium containing either dimethylsulfoxide (DMSO; control) or a DMSO solution of ligand. The cells were then transfected using Superfect (Qiagen Inc.) transfection reagent. For each well, 0.625 μL of Superfect was mixed with 14.2 μL of serum-free growth medium. 0.16 μg of reporter construct and 0.04 μg of each receptor construct were added to the transfection reagent mix. The contents of the transfection mix were mixed in a vortex mixer and let stand at room temperature for 30 minutes. At the end of incubation, 15 μL of transfection mix was added to the cells. The cells were maintained at 37° C. and 5% CO2 for 48 hours in 5% FBS.
# (§3) Reporter Assays: Cells were harvested 40 hours after adding ligands. 125 μL of passive lysis buffer (part of Dual-Luciferase reporter assay system from Promega Corporation) were added to each well of the […] plate. The plates were placed on a rotary shaker for 15 minutes. Twenty μL of lysate were assayed. Luciferase activity was measured using Dual-Luciferase reporter assay system from Promega Corporation following the manufacturer's instructions. Fold induction (FI) activities were calculated by dividing relative light units (“RLU”) in ligand treated cells with RLU in DMSO treated cells (untreated control).
# [2] = tested on: CfEcR-DEF mutant F109P; experiment: as above; assay type: cell-based, Choristoneura fumiferana
# Procedure: as §1, §2, §3
# [3] = tested on: CfEcR-DEF mutant L132N; experiment: as above; assay type: cell-based, Choristoneura fumiferana
# Procedure: as §1, §2, §3
# [4] = molecular target: CfEcR-DEF mutant M125S (Choristoneura fumiferana, UniProt O77255, M408S); experiment: as above; assay type: cell-based
# CfEcR-DEF mutant M125S, sequence (P28702 299-449): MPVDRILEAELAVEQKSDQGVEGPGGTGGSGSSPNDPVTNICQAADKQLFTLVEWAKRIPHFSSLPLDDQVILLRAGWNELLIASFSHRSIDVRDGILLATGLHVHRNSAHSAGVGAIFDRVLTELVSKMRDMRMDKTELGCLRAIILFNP
# CfEcR-DEF mutant M125S, sequence (O77255 entry or part of it M408S): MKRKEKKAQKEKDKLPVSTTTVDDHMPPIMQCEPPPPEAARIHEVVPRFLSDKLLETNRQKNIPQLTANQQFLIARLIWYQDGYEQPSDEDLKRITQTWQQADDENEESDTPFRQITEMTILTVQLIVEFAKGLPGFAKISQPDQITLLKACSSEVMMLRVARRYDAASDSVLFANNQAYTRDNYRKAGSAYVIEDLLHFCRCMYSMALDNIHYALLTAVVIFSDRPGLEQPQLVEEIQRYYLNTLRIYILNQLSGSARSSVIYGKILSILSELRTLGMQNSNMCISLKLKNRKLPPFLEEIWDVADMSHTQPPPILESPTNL
# Method in brief: (§4)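 Mutant CfEcR-DEF receptor and GAL4-driven luciferase reporter constructs transfected into mouse NIH3T3 cells with DMSO or ligand added; maintained 48 h at 37° C in 5% FBS, harvested 40 h after ligand addition. Dual-luciferase read-out; fold induction = RLU with ligand / RLU with DMSO.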
# [5] = molecular target: CfEcR-DEF mutant L223K (Choristoneura fumiferana, UniProt O77255, L506K); experiment: as above; assay type: cell-based
# CfEcR-DEF mutant L223K, sequence (P28702 298-449): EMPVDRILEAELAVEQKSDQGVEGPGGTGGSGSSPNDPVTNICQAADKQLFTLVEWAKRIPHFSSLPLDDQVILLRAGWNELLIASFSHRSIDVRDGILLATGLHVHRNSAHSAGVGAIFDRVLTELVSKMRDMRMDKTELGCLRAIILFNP
# CfEcR-DEF mutant L223K, sequence (O77255 entry or part of it L506K): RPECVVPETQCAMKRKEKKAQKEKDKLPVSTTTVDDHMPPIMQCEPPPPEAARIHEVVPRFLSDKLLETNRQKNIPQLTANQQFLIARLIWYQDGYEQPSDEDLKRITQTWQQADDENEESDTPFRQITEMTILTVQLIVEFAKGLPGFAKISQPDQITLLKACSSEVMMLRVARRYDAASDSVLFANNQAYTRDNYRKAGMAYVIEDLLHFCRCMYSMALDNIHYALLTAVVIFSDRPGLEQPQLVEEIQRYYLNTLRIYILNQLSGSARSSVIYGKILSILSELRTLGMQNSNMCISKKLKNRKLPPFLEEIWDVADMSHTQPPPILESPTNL
# Method in brief: as §4
# [6] = molecular target: CfEcR-DEF mutant T52G (Choristoneura fumiferana, UniProt O77255, T335G); experiment: as above; assay type: cell-based
# CfEcR-DEF mutant T52G, sequence (O77255 entry or part of it T335G): as the sequence (O77255 entry or part of it L506K) above, with T129G, K300L counted along it
# CfEcR-DEF mutant T52G, sequence (P28702 298-449, further chain): as the sequence (P28702 298-449) above
# Method in brief: as §4
# [7] = molecular target: CfEcR-DEF mutant M125I (Choristoneura fumiferana, UniProt O77255, M408I); experiment: as above; assay type: cell-based
# CfEcR-DEF mutant M125I, sequence (O77255 entry or part of it M408I): as the sequence (O77255 entry or part of it L506K) above, with M202I, K300L counted along it
# CfEcR-DEF mutant M125I, sequence (P28702 299-449, further chain): as the sequence (P28702 299-449) above
# Method in brief: as §4
# [8] = molecular target: CfEcR-DEF mutant T52W (Choristoneura fumiferana, UniProt O77255, T335W); experiment: as above; assay type: cell-based
# CfEcR-DEF mutant T52W, sequence (O77255 entry or part of it T335W): as the sequence (O77255 entry or part of it M408S) above, with T117W, S190M counted along it
# CfEcR-DEF mutant T52W, sequence (P28702 299-449, further chain): as the sequence (P28702 299-449) above
# Method in brief: as §4
# [9] = molecular target: CfEcR-DEF mutant M219W (Choristoneura fumiferana, UniProt O77255, M502W); experiment: as above; assay type: cell-based
# CfEcR-DEF mutant M219W, sequence (P28702 299-449): as above
# CfEcR-DEF mutant M219W, sequence (O77255 entry or part of it M502W): as the sequence (O77255 entry or part of it L506K) above, with M296W, K300L counted along it
# Method in brief: as §4
# [10] = molecular target: CfEcR-DEF mutant W238M (Choristoneura fumiferana, UniProt O77255, W521M); experiment: as above; assay type: cell-based
# CfEcR-DEF mutant W238M, sequence (P28702 299-449): as the sequence (P28702 299-449) above
# CfEcR-DEF mutant W238M, sequence (O77255 entry or part of it W521M): as the sequence (O77255 entry or part of it L506K) above, with K300L, W315M counted along it
# Method in brief: as §4
# [11] = molecular target: CfEcR-DEF mutant M219Y (Choristoneura fumiferana, UniProt O77255, M502Y); experiment: as above; assay type: cell-based
# CfEcR-DEF mutant M219Y, sequence (P28702 299-449): as the sequence (P28702 299-449) above
# CfEcR-DEF mutant M219Y, sequence (O77255 entry or part of it M502Y): as the sequence (O77255 entry or part of it L506K) above, with M296Y, K300L counted along it
# Method in brief: as §4
# [12] = molecular target: CfEcR-DEF mutant L132E (Choristoneura fumiferana, UniProt O77255, L415E); experiment: as above; assay type: cell-based
# CfEcR-DEF mutant L132E, sequence (O77255 entry or part of it L415E): as the sequence (O77255 entry or part of it L506K) above, with L209E, K300L counted along it
# CfEcR-DEF mutant L132E, sequence (P28702 298-449, further chain): as the sequence (P28702 298-449) above
# Method in brief: as §4
# [13] = molecular target: CfEcR-DEF mutant L223R (Choristoneura fumiferana, UniProt O77255, L506R); experiment: as above; assay type: cell-based
# CfEcR-DEF mutant L223R, sequence (O77255 entry or part of it L506R): as the sequence (O77255 entry or part of it M408S) above, with S190M, L288R counted along it
# CfEcR-DEF mutant L223R, sequence (P28702 299-449, further chain): as the sequence (P28702 299-449) above
# Method in brief: as §4
# [14] = molecular target: CfEcR-DEF mutant F48R (Choristoneura fumiferana, UniProt O77255, F331R); experiment: as above; assay type: cell-based
# CfEcR-DEF mutant F48R, sequence (O77255 entry or part of it F331R): as the sequence (O77255 entry or part of it L506K) above, with F125R, K300L counted along it
# CfEcR-DEF mutant F48R, sequence (P28702 299-449, further chain): as the sequence (P28702 299-449) above
# Method in brief: as §4
# [15] = molecular target: CfEcR-DEF mutant M219K (Choristoneura fumiferana, UniProt O77255, M502K); experiment: as above; assay type: cell-based
# CfEcR-DEF mutant M219K, sequence (P28702 299-449): as above
# CfEcR-DEF mutant M219K, sequence (O77255 entry or part of it M502K): as the sequence (O77255 entry or part of it L506K) above, with M296K, K300L counted along it
# Method in brief: as §4
# [16] = molecular target: CfEcR-DEF mutant T52M (Choristoneura fumiferana, UniProt O77255, T335M); experiment: as above; assay type: cell-based
# CfEcR-DEF mutant T52M, sequence (O77255 entry or part of it T335M): as the sequence (O77255 entry or part of it L506K) above, with T129M, K300L counted along it
# CfEcR-DEF mutant T52M, sequence (P28702 298-449, further chain): as the sequence (P28702 298-449) above
# Method in brief: as §4
# [17] = molecular target: CfEcR-DEF mutant L234W (Choristoneura fumiferana, UniProt O77255, L517W); experiment: as above; assay type: cell-based
# CfEcR-DEF mutant L234W, sequence (O77255 entry or part of it L517W): as the sequence (O77255 entry or part of it L506K) above, with K300L, L311W counted along it
# CfEcR-DEF mutant L234W, sequence (P28702 299-449, further chain): as the sequence (P28702 299-449) above
# Method in brief: as §4
# [18] = molecular target: CfEcR-DEF mutant T52R (Choristoneura fumiferana, UniProt O77255, T335R); experiment: as above; assay type: cell-based
# CfEcR-DEF mutant T52R, sequence (O77255 entry or part of it T335R): as the sequence (O77255 entry or part of it M408S) above, with T117R, S190M counted along it
# CfEcR-DEF mutant T52R, sequence (P28702 299-449, further chain): as the sequence (P28702 299-449) above
# Method in brief: as §4
# [19] = molecular target: CfEcR-DEF mutant M219A (Choristoneura fumiferana, UniProt O77255, M502A); experiment: as above; assay type: cell-based
# CfEcR-DEF mutant M219A, sequence (O77255 entry or part of it M502A): as the sequence (O77255 entry or part of it L506K) above, with M296A, K300L counted along it
# CfEcR-DEF mutant M219A, sequence (P28702 299-449, further chain): as the sequence (P28702 299-449) above
# Method in brief: as §4
# [20] = molecular target: CfEcR-DEF mutant M125G (Choristoneura fumiferana, UniProt O77255, M408G); experiment: as above; assay type: cell-based
# CfEcR-DEF mutant M125G, sequence (P28702 299-449): as above
# CfEcR-DEF mutant M125G, sequence (O77255 entry or part of it M408G): as the sequence (O77255 entry or part of it L506K) above, with M202G, K300L counted along it
# Method in brief: as §4
# [21] = NIH3T3, 40 h, read-out: Rel Max FI
# [22] = NIH3T3, 40 h, read-out: Rel MaxFI
structure (smiles),measurement,setting,value
"CCc1c(OC)cccc1C(=O)NN(C(=O)c1cc(C)cc(C)c1)C(C)(C)C [RG-102240, N-(2-ethyl-3-methoxybenzoyl)-N′-(3,5-dimethylbenzoyl)-N′-tert-butylhydrazine]",GS-E ligand max FI (relative to DMSO),[1],1
same,Concentration (mM) at max FI,[1]; GS-E ligand,33.30 mM
same,GS-E ligand max FI (relative to DMSO),[2],1
same,Concentration (mM) at max FI,[2]; GS-E ligand,10.00 mM
same,GS-E ligand max FI (relative to DMSO),[3],785
same,Concentration (mM) at max FI,[3]; GS-E ligand,33.30 mM
same,EC50,[4],12.3 µM
same,Emax,[4]; [21],100%
same,EC50,[5],3.93 µM
same,Emax,[5]; [21],100%
same,EC50,[6],3.52 µM
same,Emax,[6]; [21],100%
same,EC50,[7],1.36 µM
same,Emax,[7]; [21],100%
same,EC50,[8],18.3 µM
same,Emax,[8]; [21],100%
same,EC50,[9],3.35 µM
same,Emax,[9]; [21],100%
same,EC50,[10],10.5 µM
same,Emax,[10]; [22],100%
same,EC50,[11],0.82 µM
same,Emax,[11]; [21],100%
same,EC50,[12],0.41 µM
same,Emax,[12]; [21],100%
same,EC50,[13],8.69 µM
same,Emax,[13]; [21],100%
same,EC50,[14],7.23 µM
same,Emax,[14]; [21],100%
same,EC50,[15],2.9 µM
same,Emax,[15]; [21],100%
same,EC50,[16],6.74 µM
same,Emax,[16]; [22],100%
same,EC50,[17],11.5 µM
same,Emax,[17]; [21],100%
same,EC50,[18],6.69 µM
same,Emax,[18]; [21],100%
same,EC50,[19],2.9 µM
same,Emax,[19]; [21],100%
same,EC50,[20],14.2 µM
same,Emax,[20]; [21],100%
"Cc1cc(C)cc(C(=O)N(NC(=O)c2cccc(C(C)C)c2C)C(C)(C)C)c1 [RG-102362, 3,5-Dimethyl-benzoic acid N-tert-butyl-N′-(3-isopropyl-2-methyl-benzoyl)-hydrazide]",melting point,,182.5 °C
